This note sets out measurements from patent publication US8492559B2, “Substituted indole compounds” (Gruenenthal GmbH, priority 2009, dated 2013).

One test addresses T1, B1R receptor of the rat (rB1R) (Rattus norvegicus, UniProt P97583).
T1 construct: expressed in transfected cells; host or cells: CHO K1 cells
T1 sequence (P97583 1-337): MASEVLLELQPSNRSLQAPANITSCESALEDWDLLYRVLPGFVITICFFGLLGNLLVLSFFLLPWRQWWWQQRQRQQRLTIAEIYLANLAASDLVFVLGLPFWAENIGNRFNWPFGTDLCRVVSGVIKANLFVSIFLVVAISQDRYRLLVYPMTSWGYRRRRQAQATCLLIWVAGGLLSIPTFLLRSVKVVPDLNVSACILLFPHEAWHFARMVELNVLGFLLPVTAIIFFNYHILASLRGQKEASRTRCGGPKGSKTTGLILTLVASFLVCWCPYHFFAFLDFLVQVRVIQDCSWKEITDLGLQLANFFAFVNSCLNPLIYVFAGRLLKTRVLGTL
The test is described as follows: Functional investigation on the bradykinin 1 receptor (B1R), FLIPR Ca2+ assay, rB1R cells. The test is classed as cell-based. Particulars: 10 μM test substance; CHO K1 cells with rat B1R; agonist Des-Arg9 bradykinin; % of maximum achievable inhibition. How it is done: The indication in % activation is based on the Ca^2+ signal after addition of Lys-Des-[…] bradykinin (0.5 nM) or Des-[…] bradykinin (100 nM). Antagonists lead to a suppression of the Ca^2+ influx following administration of the agonist. The % inhibition in comparison with the maximum achievable inhibition is indicated. […] According to this assay, the Ca^2+ inflow through the channel is quantified with the aid of a Ca^2+-sensitive dye (Fluo-4 type, Molecular Probes Europe BV, Leiden, Netherlands) in a fluorescent imaging plate reader (FLIPR, Molecular Devices, Sunnyvale, USA). […] For functional investigations these cells are plated-out onto black 96-well plates with a clear base (BD Biosciences, Heidelberg, Germany or Greiner, Frickenhausen, Germany) in a density of 20,000-35,000 cells/well. Overnight the cells are incubated at 37° C. and 5% CO2 in culture medium (hB1R cells: Ham's Nutrient Mixture F12, Gibco Invitrogen GmbH, Karlsruhe, Germany or DMEM, Sigma-Aldrich, Taufkirchen, Germany; rB1R cells: D-MEM/F12, Gibco Invitrogen, Karlsruhe, Germany) with 10 vol. % FBS (foetal bovine serum, Gibco Invitrogen GmbH, Karlsruhe, Germany or PAN Biotech GmbH, Aidenbach, Germany). On the following day the cells are loaded with 2.13 μM Fluo-4 (Molecular Probes Europe BV, Leiden, Netherlands) in HBSS buffer (Hank's buffered saline solution, Gibco Invitrogen GmbH, Karlsruhe, Germany) with 2.5 mM probenecid (Sigma-Aldrich, Taufkirchen, Germany) and 10 mM HEPES (Sigma-Aldrich, Taufkirchen, Germany) for 60 min at 37° C. […] Sigma-Aldrich, Taufkirchen, Germany), 5.6 mM glucose and 0.05% gelatine (Merck KGaA, Darmstadt, Germany) is added. After a further incubation of 20 minutes at room temperature, the plates are inserted into the FLIPR for Ca^2+ measurement. Alternatively they are washed with buffer A (15 mM HEPES, 80 mM NaCl, 5 mM KCl, 1.2 mM CaCl2, 0.7 mM MgSO4, 2 g/l glucose, 2.5 mM probenecid) and loaded with buffer A with added 2.5 μM Fluo-4 and 0.025% Pluronic F127 (Sigma-Aldrich, Taufkirchen, Germany). The cells are then washed twice with buffer A and incubated for 30 minutes with buffer A, which additionally contains 0.05% BSA and 0.05% gelatine, at room temperature and then used for Ca^2+ measurement in the FLIPR. The Ca^2+-dependent fluorescence is measured here before and after addition of substances (λex=488 nm, λem=540 nm). The quantification is performed by measuring the highest fluorescence intensity (FC, fluorescence counts) over time. The FLIPR protocol comprises two additions of substance. […] Lys-Des-[…] bradykinin>=50 nM; rB1R: […] Antagonists lead to a suppression of the Ca^2+ inflow. The % inhibition in comparison with the maximum achievable inhibition is calculated. The substances are added in varying concentrations in order to determine the IC50 value. Double or triple determinations (n=2 or n=3) are performed and these are repeated in at least one further independent experiment (N>=2).
Turning to `COc1cc(C)c(S(=O)(=O)Nc2ccc3ccn(CC(=O)N4CCN(CC5CCN(C)CC5)CC4)c3c2)c(C)c1` [G_CC-4, 4-Methoxy-2,6-dimethyl-N-[1-[2-[4-[(1-methyl-piperdin-4-yl)-methyl]-piperazin-1-yl]-2-oxo-ethyl]-1H-indol-6-yl]-benzenesulfonic acid amide], the “B1R antagonism, rat [10 μM] % inhibition” value is 99%.

The same test, now with this note: CHO-K1, 10 μM test substance; CHO K1 cells with rat B1R; agonist Des-Arg9 bradykinin; % of maximum achievable inhibition; read-out: B1R antagonism, rat [10 μM] % inhibition.
As to `COc1cc(C)c(S(=O)(=O)Nc2ccc3ccn(CC(=O)N(C)CCCN4CCC(c5cccs5)(N(C)C)CC4)c3c2)c(C)c1` [G_CC-29, N-[3-(4-Dimethylamino-4-thiophen-2-yl-piperidin-1-yl)-propyl]-2-[6-[[(4-methoxy-2,6-dimethyl-phenyl)sulfonyl]amino]-1H-indol-1-yl]-N-methyl-acetamide], the inhibition at 10 µM stood at 92%. On the same count and under the same terms, then `CN(CCCN1CCC(c2cccs2)(N(C)C)CC1)C(=O)Cn1ccc2cccc(NS(=O)(=O)c3cccc4ccccc34)c21` [G_CC-25, N-[3-(4-Dimethylamino-4-thiophen-2-yl-piperidin-1-yl)-propyl]-N-methyl-2-[7-[(naphthalen-1-ylsulfonyl)amino]-1H-indol-1-yl]-acetamide], with 58%; and `CN1CCN(C2(c3cccc(F)c3)CCN(CCN(C)C(=O)Cn3ccc4ccc(N5Cc6cccc(Cl)c6C5=O)cc43)CC2)CC1` [G_CC-113, 2-[6-(4-Chloro-3-oxo-1,2-dihydro-isoindol-2-yl)-1H-indol-1-yl]-N-[2-[4-(3-fluorophenyl)-4-(4-methyl-piperazin-1-yl)-piperidin-1-yl]-ethyl]-N-methyl-acetamide], with 78%. Same read-out and setting: as for `O=C(CCn1ccc2ccc(N3Cc4cccc(Cl)c4C3=O)cc21)N1CCC2(CC1)CCN(Cc1ccc(F)cc1)C2=O` [G_CC-66, 8-[3-[6-(4-Chloro-3-oxo-1,2-dihydro-isoindol-2-yl)-1H-indol-1-yl]-propanoyl]-3-[(4-fluorophenyl)-methyl]-3,8-diazaspiro[4.5]decan-4-one], the figure is 52%; as for `Cc1cc(S(=O)(=O)Nc2cccc3ccn(CC(=O)NCCN4CCC(c5cccs5)(N(C)C)CC4)c23)c(C)cc1Cl` [G_CC-27, 2-[7-[[(4-Chloro-2,5-dimethyl-phenyl)sulfonyl]amino]-1H-indol-1-yl]-N-[2-(4-dimethylamino-4-thiophen-2-yl-piperidin-1-yl)-ethyl]-acetamide], 56%. Same read-out and setting: as for `COc1cc(C)c(S(=O)(=O)Nc2ccc3ccn(CC(=O)N(C)CCCN4CCC(c5ccccc5)(N(C)C)CC4)c3c2)c(C)c1` [G_CC-11, N-[3-(4-Dimethylamino-4-phenyl-piperidin-1-yl)-propyl]-2-[6-[[(4-methoxy-2,6-dimethyl-phenyl)sulfonyl]amino]-1H-indol-1-yl]-N-methyl-acetamide], the figure is 87%. Regarding `COc1cc(C)c(S(=O)(=O)Nc2cccc3ccn(CC(=O)NC4CCC(c5ccccc5)(N5CCC5)CC4)c23)c(C)c1` (centres unmarked) [G_CC-17, N-[4-(Azetidin-1-yl)-4-phenyl-cyclohexyl]-2-[7-[[(4-methoxy-2,6-dimethyl-phenyl)sulfonyl]amino]-1H-indol-1-yl]-acetamide], the inhibition at 10 µM came out at 52%.

For the compound `CN(CCCN1CCN(c2ccncc2)CC1)C(=O)CCn1ccc2ccc(N3Cc4cccc(Cl)c4C3=O)cc21` [G_CC-119, 3-[6-(4-Chloro-3-oxo-1,2-dihydro-isoindol-2-yl)-1H-indol-1-yl]-N-methyl-N-[3-(4-pyridin-4-yl-piperazin-1-yl)-propyl]-propionamide], the inhibition at 10 µM was 72%. With `COc1cc(C)c(S(=O)(=O)Nc2ccc3ccn(CC(=O)N4CCN(C5CCN(C)CC5)CC4)c3c2)c(C)c1` [G_CC-1, 4-Methoxy-2,6-dimethyl-N-[1-[2-[4-(1-methyl-piperidin-4-yl)-piperazin-1-yl]-2-oxo-ethyl]-1H-indol-6-yl]-benzenesulfonic acid amide], the inhibition at 10 µM came out at 62%. `O=C(CCn1ccc2ccc(N3Cc4cccc(Cl)c4C3=O)cc21)N1CCC(O)(c2cccnc2)CC1` [G_CC-69, 7-Chloro-2-[1-[3-(4-hydroxy-4-pyridin-3-yl-piperidin-1-yl)-3-oxo-propyl]-1H-indol-6-yl]-2,3-dihydro-isoindol-1-one]: the inhibition at 10 µM came to 65%. The same measure, in the same setting: as for `COc1cc(C)c(S(=O)(=O)Nc2cccc3ccn(CC(=O)N4CCC(c5cccs5)(N(C)C)CC4)c23)c(C)c1` [G_CC-20, N-[1-[2-(4-Dimethylamino-4-thiophen-2-yl-piperidin-1-yl)-2-oxo-ethyl]-1H-indol-7-yl]-4-methoxy-2,6-dimethyl-benzenesulfonic acid amide], the figure is 86%; as for `O=C(Cn1ccc2cccc(NS(=O)(=O)c3cccc4ccccc34)c21)N1CCC2(CC1)CCN(c1ccncc1)CC2` [G_CC-38, N-[1-[2-Oxo-2-(3-pyridin-4-yl-3,9-diazaspiro[5.5]undecan-9-yl)-ethyl]-1H-indol-7-yl]-naphthalene-1-sulfonic acid amide], 96%; as for `O=C(CCn1ccc2cccc(N3Cc4cccc(Cl)c4C3=O)c21)N1CCC2(CC1)CCN(c1ccncc1)CC2` [G_CC-106, 7-Chloro-2-[1-[3-oxo-3-(3-pyridin-4-yl-3,9-diazaspiro[5.5]undecan-9-yl)-propyl]-1H-indol-7-yl]-2,3-dihydro-isoindol-1-one], 86%. Turning to `O=C(CCn1ccc2ccc(N3Cc4cccc(Cl)c4C3=O)cc21)NCCC1CCN(c2ccncc2)CC1` [G_CC-72, 3-[6-(4-Chloro-3-oxo-1,2-dihydro-isoindol-2-yl)-1H-indol-1-yl]-N-[2-(1-pyridin-4-yl-piperidin-4-yl)-ethyl]-propionamide], the inhibition at 10 µM amounted to 71%. Still for that read-out and setting: then `COc1cc(C)c(S(=O)(=O)Nc2cccc3ccn(CC(=O)N4CCN(c5ncccn5)CC4)c23)c(C)c1` [G_CC-6, 4-Methoxy-2,6-dimethyl-N-[1-[2-oxo-2-(4-pyrimidin-2-yl-piperazin-1-yl)-ethyl]-1H-indol-7-yl]-benzenesulfonic acid amide], with 73%; and `COc1cc(C)c(S(=O)(=O)Nc2cccc3ccn(CC(=O)N4CCN(c5ccc(F)cc5)CC4)c23)c(C)c1` [G_CC-5, N-[1-[2-[4-(4-fluorophenyl)-piperazin-1-yl]-2-oxo-ethyl]-1H-indol-7-yl]-4-methoxy-2,6-dimethyl-benzenesulfonic acid amide], with 59%. In the case of `COc1cc(C)c(S(=O)(=O)Nc2ccc3ccn(CCC(=O)NCCN4CCC(c5cccs5)(N(C)C)CC4)c3c2)c(C)c1` [G_CC-22, N-[2-(4-Dimethylamino-4-thiophen-2-yl-piperidin-1-yl)-ethyl]-3-[6-[[(4-methoxy-2,6-dimethyl-phenyl)sulfonyl]amino]-1H-indol-1-yl]-propionamide], the inhibition at 10 µM was 59%. Still for that read-out and setting: as for `Cc1cc(S(=O)(=O)Nc2ccc3ccn(CCC(=O)NCCN4CCC(c5cccs5)(N(C)C)CC4)c3c2)c(C)cc1Cl` [G_CC-74, 3-[6-[[(4-Chloro-2,5-dimethyl-phenyl)sulfonyl]amino]-1H-indol-1-yl]-N-[2-(4-dimethylamino-4-thiophen-2-yl-piperidin-1-yl)-ethyl]-propionamide], the figure is 51%. The same measure, in the same setting: then `O=C(Cn1ccc2cccc(NS(=O)(=O)c3ccccc3C(F)(F)F)c21)N1CCC2(CC1)CCN(c1ccncc1)CC2` [G_CC-53, N-[1-[2-Oxo-2-(3-pyridin-4-yl-3,9-diazaspiro[5.5]undecan-9-yl)-ethyl]-1H-indol-7-yl]-2-(trifluoromethyl)-benzenesulfonic acid amide], with 101%.
